We go through 17 molecules from article PMC11642016 (International Journal of Molecular Sciences, 2024).

Where two headings read alike, the source gives them in different places.

Usually viability stands for a read-out of living cells in per cent, often relative to untreated cells.

The subject of one data set is Fadu cells. Kind of data set: CellTiter-Glo luminescent cell viability assay, Fadu. The following applies: 72 h, mean ± SD, n = 2; for Cell Viability (% of Control) 2.8 µM / Cell Viability (% of Control) 8.3 µM / Cell Viability (% of Control) 25 µM: Fadu; for viability at 2.8 µM / viability at 8.3 µM / viability at 25 µM: Homo sapiens, FaDu; for viability at 2.8 µM: read-out: Cell Viability (% of Control) 2.8 µM, Fadu; for viability at 8.3 µM: read-out: Cell Viability (% of Control) 8.3 µM, Fadu; for viability at 25 µM: read-out: Cell Viability (% of Control) 25 µM, Fadu.

The test system of the next data set is PANC-1 cells. Kind of data set: CellTiter-Glo luminescent cell viability assay, PANC-1. Conditions: 72 h, mean ± SD, n = 2; for Cell Viability (% of Control) 2.8 µM / Cell Viability (% of Control) 8.3 µM / Cell Viability (% of Control) 25 µM: PANC-1; for viability at 2.8 µM / viability at 8.3 µM / viability at 25 µM: Homo sapiens, PANC-1, 72 h; for viability at 2.8 µM: read-out: Cell Viability (% of Control) 2.8 µM, PANC-1; for viability at 8.3 µM: read-out: Cell Viability (% of Control) 8.3 µM, PANC-1; for viability at 25 µM: read-out: Cell Viability (% of Control) 25 µM, PANC-1. (Cellular ATP, detected with luciferase, serves as a proxy for viable cell number.)

In the case of `O=C1C2=C(CCN(Cc3cccc(-n4cc(-[c-]5cccc5)nn4)c3)C2)N2CCN=C2N1Cc1ccc(C#CCO)cc1.[Fe+2].c1cc[cH-]c1` [3c], in the data set with Fadu cells (first-set screening), the “Cell Viability (% of Control) 2.8 µM” value is listed as 103 ± 9 % of Control, the “Cell Viability (% of Control) 8.3 µM” value is 99 ± 2 % of Control and the “Cell Viability (% of Control) 25 µM” value is recorded as 85 ± 5 % of Control. For the same molecule, in the data set on PANC-1 cells (first-set screening), the “Cell Viability (% of Control) 2.8 µM” value was 100 ± 3 % of Control, the “Cell Viability (% of Control) 8.3 µM” value is recorded as 98 ± 1 % of Control and the “Cell Viability (% of Control) 25 µM” value is given as 98 ± 1 % of Control.

As to `O=C1C2=C(CCN(Cc3cccc(-n4cc(-c5ccccc5)nn4)c3)C2)N2CCN=C2N1Cc1ccc(C#CCO)cc1` [3d], in the data set with Fadu cells (first-set screening), the viability at 2.8 µM turned out to be 87 ± 1%, the viability at 8.3 µM amounted to 29 ± 2% and the viability at 25 µM came to 23 ± 3%. For the same molecule, in the data set with PANC-1 cells (first-set screening), the viability at 2.8 µM came out at 85 ± 1%, the viability at 8.3 µM was 55 ± 6% and the viability at 25 µM is 46 ± 7%.

For the molecule `NCC#Cc1cccc(CN2C(=O)C3=C(CCN(Cc4cccc(-n5cc(-[c-]6cccc6)nn5)c4)C3)N3CCN=C23)c1.[Fe+2].c1cc[cH-]c1` [4a], in the data set on Fadu cells (first-set screening), the “Cell Viability (% of Control) 2.8 µM” value was 102 ± 1 % of Control, the “Cell Viability (% of Control) 8.3 µM” value is 77 ± 3 % of Control and the “Cell Viability (% of Control) 25 µM” value is given as 0 ± 0 % of Control. In addition, in the data set with PANC-1 cells (first-set screening), the “Cell Viability (% of Control) 2.8 µM” value is 91 ± 4 % of Control, the “Cell Viability (% of Control) 8.3 µM” value is reported as 73 ± 9 % of Control and the “Cell Viability (% of Control) 25 µM” value is reported as 0 ± 0 % of Control.

Turning to `O=C1C2=C(CCN(Cc3cccc(-n4cc(-c5ccccc5)nn4)c3)C2)N2CCN=C2N1Cc1cccc(C#CCO)c1` [4d], in the data set on Fadu cells (first-set screening), the viability at 2.8 µM is 37 ± 1%, the viability at 8.3 µM was 27 ± 3% and the viability at 25 µM turned out to be 23 ± 3%. In addition, in the data set on PANC-1 cells (first-set screening), the viability at 2.8 µM turned out to be 74 ± 3%, the viability at 8.3 µM was 60 ± 2% and the viability at 25 µM was 53 ± 8%.

With `O=C1C2=C(CCN(Cc3ccc(-n4cc(-c5ccccc5)nn4)cc3)C2)N2CCN=C2N1Cc1ccc(F)cc1` [16f], in the data set with Fadu cells (first-set screening), the viability at 2.8 µM was 100 ± 1%, the viability at 8.3 µM came out at 94 ± 1% and the viability at 25 µM amounted to 77 ± 4%. Besides, in the data set on PANC-1 cells (first-set screening), the viability at 2.8 µM came to 81 ± 3%, the viability at 8.3 µM stood at 68 ± 4% and the viability at 25 µM was determined as 60 ± 1%.

For `NCC#Cc1cccc(CN2C(=O)C3=C(CCN(Cc4ccc(NC(=O)[c-]5cccc5)cc4)C3)N3CCN=C23)c1.[Fe+2].c1cc[cH-]c1` [23a], in the data set with Fadu cells (second-set screening), the “Cell Viability (% of Control) 2.8 µM” value is reported as 109 ± 10 % of Control, the “Cell Viability (% of Control) 8.3 µM” value was 107 ± 7 % of Control and the “Cell Viability (% of Control) 25 µM” value was 61 ± 20 % of Control. Besides, in the data set on PANC-1 cells (second-set screening), the “Cell Viability (% of Control) 2.8 µM” value is 98 ± 7 % of Control, the “Cell Viability (% of Control) 8.3 µM” value was 104 ± 10 % of Control and the “Cell Viability (% of Control) 25 µM” value was 52 ± 55 % of Control.

On to `NCC#Cc1cccc(CN2C(=O)C3=C(CCN(Cc4ccc(NC(=O)c5ccccc5)cc4)C3)N3CCN=C23)c1` [23b], for which, in the data set on Fadu cells (second-set screening), the viability at 2.8 µM stood at 117 ± 11%, the viability at 8.3 µM came to 108 ± 7% and the viability at 25 µM was found to be 77 ± 6%. Further, in the data set with PANC-1 cells (second-set screening), the viability at 2.8 µM turned out to be 113 ± 15%, the viability at 8.3 µM worked out at 106 ± 5% and the viability at 25 µM was determined as 47 ± 39%.

As to `NCC#Cc1cccc(CN2C(=O)C3=C(CCN(Cc4ccc(C(=O)N[c-]5cccc5)cc4)C3)N3CCN=C23)c1.[Fe+2].c1cc[cH-]c1` [33a], in the data set on Fadu cells (second-set screening), the “Cell Viability (% of Control) 2.8 µM” value is recorded as 99 ± 2 % of Control, the “Cell Viability (% of Control) 8.3 µM” value was 93 ± 2 % of Control and the “Cell Viability (% of Control) 25 µM” value was 9 ± 8 % of Control. Further, in the data set with PANC-1 cells (second-set screening), the “Cell Viability (% of Control) 2.8 µM” value is reported as 102 ± 9 % of Control, the “Cell Viability (% of Control) 8.3 µM” value is listed as 107 ± 9 % of Control and the “Cell Viability (% of Control) 25 µM” value was 4 ± 5 % of Control.

For the molecule `NCC#Cc1cccc(CN2C(=O)C3=C(CCN(Cc4ccc(C(=O)Nc5ccccc5)cc4)C3)N3CCN=C23)c1` [33b], in the data set on Fadu cells (second-set screening), the viability at 2.8 µM worked out at 120 ± 9%, the viability at 8.3 µM was 115 ± 6% and the viability at 25 µM is 80 ± 11%. In the data set on PANC-1 cells (second-set screening), the viability at 2.8 µM was found to be 102 ± 9%, the viability at 8.3 µM was 109 ± 5% and the viability at 25 µM stood at 71 ± 32%.

As for `NCC#Cc1cccc(CN2C(=O)C3=C(CCN(Cc4ccc(-n5cc(-c6cccc(F)c6)nn5)cc4)C3)N3CCN=C23)c1` [36a], in the data set with Fadu cells (second-set screening), the viability at 2.8 µM was determined as 105 ± 20%, the viability at 8.3 µM is 6 ± 5% and the viability at 25 µM is 0%. Also, in the data set on PANC-1 cells (second-set screening), the viability at 2.8 µM came out at 116 ± 8%, the viability at 8.3 µM turned out to be 0% and the viability at 25 µM was 0%.

As to `NCC#Cc1cccc(CN2C(=O)C3=C(CCN(Cc4ccc(-n5cc(-c6ccc(F)cc6)nn5)cc4)C3)N3CCN=C23)c1` [36b], in the data set on Fadu cells (second-set screening), the viability at 2.8 µM came to 114 ± 7%, the viability at 8.3 µM was 1 ± 1% and the viability at 25 µM amounted to 0%. For the same molecule, in the data set on PANC-1 cells (second-set screening), the viability at 2.8 µM stood at 116 ± 7%, the viability at 8.3 µM stood at 0% and the viability at 25 µM worked out at 0%.

Regarding `NCC#Cc1cccc(CN2C(=O)C3=C(CCN(Cc4ccc(-n5cc(-c6cc(F)cc(F)c6)nn5)cc4)C3)N3CCN=C23)c1` [36c], in the data set with Fadu cells (second-set screening), the viability at 2.8 µM was 111 ± 10%, the viability at 8.3 µM was 5 ± 5% and the viability at 25 µM stood at 0%. For the same molecule, in the data set with PANC-1 cells (second-set screening), the viability at 2.8 µM was determined as 111 ± 8%, the viability at 8.3 µM was 0% and the viability at 25 µM came out at 0%.

Consider `NCc1cccc(CN2C(=O)C3=C(CCN(Cc4ccc(-n5cc(-[c-]6cccc6)nn5)cc4)C3)N3CCN=C23)c1.[Fe+2].c1cc[cH-]c1` [37a], for which, in the data set with Fadu cells (second-set screening), the “Cell Viability (% of Control) 2.8 µM” value is 106 ± 10 % of Control, the “Cell Viability (% of Control) 8.3 µM” value is on record as 70 ± 20 % of Control and the “Cell Viability (% of Control) 25 µM” value is 0 ± 0 % of Control. Besides, in the data set on PANC-1 cells (second-set screening), the “Cell Viability (% of Control) 2.8 µM” value is 118 ± 4 % of Control, the “Cell Viability (% of Control) 8.3 µM” value was 123 ± 5 % of Control and the “Cell Viability (% of Control) 25 µM” value is recorded as 16 ± 8 % of Control.

Turning to `NCc1cccc(CN2C(=O)C3=C(CCN(Cc4ccc(-n5cc(-c6ccccc6)nn5)cc4)C3)N3CCN=C23)c1` [37b], in the data set with Fadu cells (second-set screening), the viability at 2.8 µM worked out at 108 ± 7%, the viability at 8.3 µM is 91 ± 12% and the viability at 25 µM came out at 13 ± 6%. Moreover, in the data set with PANC-1 cells (second-set screening), the viability at 2.8 µM was 110 ± 5%, the viability at 8.3 µM was 113 ± 3% and the viability at 25 µM is 5 ± 6%.

Regarding `CN(C)CC#Cc1cccc(CN2C(=O)C3=C(CCN(Cc4ccc(-n5cc(-[c-]6cccc6)nn5)cc4)C3)N3CCN=C23)c1.[Fe+2].c1cc[cH-]c1` [39a], in the data set on Fadu cells (second-set screening), the “Cell Viability (% of Control) 2.8 µM” value is 99 ± 9 % of Control, the “Cell Viability (% of Control) 8.3 µM” value is on record as 45 ± 52 % of Control and the “Cell Viability (% of Control) 25 µM” value was 13 ± 15 % of Control. Also, in the data set on PANC-1 cells (second-set screening), the “Cell Viability (% of Control) 2.8 µM” value is 112 ± 7 % of Control, the “Cell Viability (% of Control) 8.3 µM” value was 62 ± 72 % of Control and the “Cell Viability (% of Control) 25 µM” value is recorded as 35 ± 41 % of Control.

For `CN(C)CC#Cc1cccc(CN2C(=O)C3=C(CCN(Cc4ccc(-n5cc(-c6ccccc6)nn5)cc4)C3)N3CCN=C23)c1` [39b], in the data set with Fadu cells (second-set screening), the viability at 2.8 µM was 96 ± 4%, the viability at 8.3 µM stood at 15 ± 8% and the viability at 25 µM turned out to be 1 ± 1%. Besides, in the data set on PANC-1 cells (second-set screening), the viability at 2.8 µM is 107 ± 3%, the viability at 8.3 µM turned out to be 25 ± 20% and the viability at 25 µM was found to be 2 ± 3%.

On to `O=C1C2=C(CCN(Cc3ccc(-n4cc(-[c-]5cccc5)nn4)cc3)C2)N2CCN=C2N1Cc1cccc(C#CCN2CCCCC2)c1.[Fe+2].c1cc[cH-]c1` [40a], for which, in the data set on Fadu cells (second-set screening), the “Cell Viability (% of Control) 2.8 µM” value is 105 ± 5 % of Control, the “Cell Viability (% of Control) 8.3 µM” value is 81 ± 21 % of Control and the “Cell Viability (% of Control) 25 µM” value was 45 ± 34 % of Control. Further, in the data set on PANC-1 cells (second-set screening), the “Cell Viability (% of Control) 2.8 µM” value is recorded as 119 ± 4 % of Control, the “Cell Viability (% of Control) 8.3 µM” value is recorded as 72 ± 61 % of Control and the “Cell Viability (% of Control) 25 µM” value is on record as 61 ± 67 % of Control.
